Measured values taken from patent US11944637B2, “Biomaterials comprising hyaluronic acid binding peptides and extracellular matrix binding peptides for hyaluronic acid retention and tissue engineering applications” (THE JOHNS HOPKINS UNIVERSITY, priority 2013, dated 2024).
No end group written: not given here.

What was measured:
articular cartilage = assay: Visualization of the HA-bound layer with biotinylated HA on cartilage covalently modified with HABPep; assay type: binding, bovine; conditions: after washing, compared to unmodified cartilage incubated with HA-biotin alone
Description: C-HABPep was conjugated to articular cartilage through a heterobifunctional poly(ethylene glycol) (PEG) spacer. Maleimide-PEG-N-hydroxysuccinimide (MAL-PEG-NHS, 3.5 kDa, Jenkem Technologies), which has functionalities that are thiol- and amine-reactive, was dissolved to 5 mM in 50 mM sodium bicarbonate, pH 7.5 and added to the articular surface. The NHS groups were allowed to react with endogenous amines on the cartilage surface for 30 minutes. PEGylation was confirmed by attenuated total reflectance Fourier transform IR spectroscopy (ATR-FTIR; Bruker Vector 22 with a Pike Miracle ATR attachment). Following thorough washes in buffer to remove unreacted crosslinker, a 1.5 mM solution of C-HABPep was added to the surface to react with maleimide groups for an additional 30 minutes. Surfaces were carefully washed to remove unreacted peptide, yielding a cartilage surface with covalently attached HA-binding functionality. Visualization of the HA-bound layer. Cartilage was conjugated with C-HABPep and incubated with biotinylated HA synthesized as previously described. Briefly, HA (975 kDa) was dissolved in 50 mM boric acid, pH 5.2 at 2 mg/ml. This was combined with biotin hydrazide (Sigma) in a 20:1 weight ratio. […] The reaction was allowed to proceed at room temperature for 16 hours, after which it was dialyzed to remove unreacted biotin hydrazide and EDC. […]

collagen II = collagen II (Homo sapiens, UniProt P02458); assay: Binding of collagen binding peptides conjugated to PEG-fluorescein on a thin coating of collagen II on TCP (fluorescence); conditions: for Normalized fluorescence intensity on collagen II coating: after washing, FIG. 2F, 2I; for Fluorescence intensity, binding on collagen II coating: compared to control and scrambled peptide, FIG. 2E, 2H
Text: (§1) FIGS. 2A-2K depict the clinically-relevant, non-covalent strategy, for one-step application of HA binding polymer system on tissue surface of the present invention. 2A, The first step in this strategy for coating a tissue surface is the reaction of a maleimide-PEG-NHS crosslinker with primary amines of the HA-binding peptide. Subsequently, peptides that non-covalently bind to ECM components, such as collagen I and collagen II, also having a thiol end group, is reacted to the maleimide. Finally, this polymer-peptide system of the present invention is mixed with an HA solution that binds to the peptide-polymer system, which on a single application makes a biomaterial-HA coating on the tissue surface. The binding of the collagen binding peptides were analyzed on thin coatings of collagen I and II on polystyrene tissue culture plates. A thin coating of collagen I on TCP with: 2B, i) No peptide, only PEG-fluorescein as a control, ii) scrambled collagen I binding peptide conjugated to PEG-fluorescein, iii) collagen I binding peptide conjugated to PEG-fluorescein, iv) scrambled collagen II binding peptide conjugated to PEG-fluorescein, v) collagen II binding peptide conjugated to PEG-fluorescein. […] A thin coating of collagen II on TCP with: 2G, i) No peptide, only PEG-fluorescein as a control, ii) scrambled collagen I binding peptide conjugated to PEG-fluorescein, iii) collagen I binding peptide conjugated to PEG-fluorescein, iv) scrambled collagen II binding peptide conjugated to PEG-fluorescein, v) collagen II binding peptide conjugated to PEG-fluorescein.
(§2) Second, a clinically relevant one-step injection/coating technology of the present invention was developed based on non-covalent binding of the HABpeptide-polymer system. Tissue surfaces, including, for example, articular cartilage, conjunctiva and sclera of an eye, are collagen I and II enriched, and can act as stable anchoring sites for the ECM binding peptides (ECMBPep). The HA-binding peptide that is linked to the ECMBPep through the PEG spacer can recapture HA that is lost through a physical or biological mechanism and can dynamically bind and concentrate HA where it is needed. Specifically, amine functionality of Col I and II ECMBPep were reacted with NHS-PEG-MAL followed by conjugation of C-HABPep to the Maleimide end groups. The resultant biomaterial composition of the present invention is mixed with HA and applied to tissue surfaces in a single step (FIG. 2A).

collagen I = collagen I (Homo sapiens, UniProt P02452+P08123); assay: Binding of collagen binding peptides conjugated to PEG-fluorescein on a thin coating of collagen I on TCP (fluorescence); conditions: for Normalized fluorescence intensity on collagen I coating: after washing, FIG. 2D, 2K; for Fluorescence intensity, binding on collagen I coating: compared to control and scrambled peptide, FIG. 2C, 2J
Text: as §1, §2

[1] = system: normal human articular cartilage; assay: Lubrication testing (cartilage-on-cartilage friction), normal cartilage
Description: (§3) Cartilage sample preparation for lubrication testing. Cartilage samples were prepared for lubrication testing as a modification on previously published protocols (Arthritis and rheumatism 56, 882-891, (2007); Arthritis and rheumatism 50, 516-525, (2004)). Both normal and osteoarthritis tissue samples were ordered through (NDRI, Philadelphia, PA). Tissue samples were received within 24 hours post-mortem or surgery. Normal and diseased samples were received in a sterile container containing Dulbecco's Modified Eagle Medium (DMEM), and protease inhibitor cocktail. Biopsy punches were used to isolate cylindrical disks (radius=6 mm) and annuli (outer radius=4 mm, inner radius=1.5 mm) with small holes punctured through the cylinder walls to improve fluid depressurization. Due to the 24-hour time point in media washing for 24-hours to eliminate any lubricin, HA, and SAPLs; instead samples were washed for 4-6 hours in PBS on a shaker. HA sample groups were always incubated in HA solution (5 mg/mL) for 24-hours post-washing (FIGS. 4b,c). It should be noted that human cartilage was scarce especially in OA samples received.
In later experiments, covalent modification of cartilage surface by HABpep (FIG. 1) was performed on bovine articular cartilage samples. All non-covalent HABpep modification and in vitro lubrication studies were performed using human articular cartilage samples (FIG. 3). Normal human tissue was isolated from cadavers […]. Human OA cartilage samples were isolated from the patients with ages, 58 (F), 60 (F), 61 (M), 65 (M), 69 (M), 71 (F), who underwent total knee arthroplasty. Care was taken to avoid damaging the articular surface during dissection. Samples (outer diameter=8.0 mm, inner diameter=3.0 mm) were microtomed and evenly cut to obtain a flat surface. The superficial layer was maintained intact and only the deep layer of cartilage was cut to obtain a flat layer to glue to the metal counter-surface while friction measurements. Cartilage was used fresh without freezing or the addition of protease inhibitors so as not to change the surface lubrication properties. Samples were washed vigorously in PBS overnight to deplete the cartilage surface of any residual synovial fluid, after which they were functionalized with an HA-binding layer as needed and incubated at 4° C. for about 24 hours in the test lubricant. […]
(§4) Lubrication testing. […] The samples were bathed in the test lubricant, measured with digital calipers, compressed to 82% of their original combined height, and preconditioned by rotating 2 revolutions in each direction at an effective sliding velocity of 3 mm/s, which is defined as the angular velocity times the effective radius of the annulus Reff=2/3[(Ro3−Ri3)/(Ro2−Ri2)]=2.94 mm. […]

[2] = system: human OA cartilage (severely damaged, OA stage 3-4); assay: Lubrication testing (cartilage-on-cartilage friction), OA cartilage
Description: as §3, with “HA sample groups were always incubated in HA solution (5 mg/mL) for 24-hours post-washing (FIGS. 4b,c). It should be noted that human cartilage was scarce especially in OA samples received.” left out
as §4

[3] = normal cartilage without coating, tested in HA bath
[4] = normal cartilage, HA bath compared to PBS bath

collagen II, sequence (P02458 182-1241 limits assumed): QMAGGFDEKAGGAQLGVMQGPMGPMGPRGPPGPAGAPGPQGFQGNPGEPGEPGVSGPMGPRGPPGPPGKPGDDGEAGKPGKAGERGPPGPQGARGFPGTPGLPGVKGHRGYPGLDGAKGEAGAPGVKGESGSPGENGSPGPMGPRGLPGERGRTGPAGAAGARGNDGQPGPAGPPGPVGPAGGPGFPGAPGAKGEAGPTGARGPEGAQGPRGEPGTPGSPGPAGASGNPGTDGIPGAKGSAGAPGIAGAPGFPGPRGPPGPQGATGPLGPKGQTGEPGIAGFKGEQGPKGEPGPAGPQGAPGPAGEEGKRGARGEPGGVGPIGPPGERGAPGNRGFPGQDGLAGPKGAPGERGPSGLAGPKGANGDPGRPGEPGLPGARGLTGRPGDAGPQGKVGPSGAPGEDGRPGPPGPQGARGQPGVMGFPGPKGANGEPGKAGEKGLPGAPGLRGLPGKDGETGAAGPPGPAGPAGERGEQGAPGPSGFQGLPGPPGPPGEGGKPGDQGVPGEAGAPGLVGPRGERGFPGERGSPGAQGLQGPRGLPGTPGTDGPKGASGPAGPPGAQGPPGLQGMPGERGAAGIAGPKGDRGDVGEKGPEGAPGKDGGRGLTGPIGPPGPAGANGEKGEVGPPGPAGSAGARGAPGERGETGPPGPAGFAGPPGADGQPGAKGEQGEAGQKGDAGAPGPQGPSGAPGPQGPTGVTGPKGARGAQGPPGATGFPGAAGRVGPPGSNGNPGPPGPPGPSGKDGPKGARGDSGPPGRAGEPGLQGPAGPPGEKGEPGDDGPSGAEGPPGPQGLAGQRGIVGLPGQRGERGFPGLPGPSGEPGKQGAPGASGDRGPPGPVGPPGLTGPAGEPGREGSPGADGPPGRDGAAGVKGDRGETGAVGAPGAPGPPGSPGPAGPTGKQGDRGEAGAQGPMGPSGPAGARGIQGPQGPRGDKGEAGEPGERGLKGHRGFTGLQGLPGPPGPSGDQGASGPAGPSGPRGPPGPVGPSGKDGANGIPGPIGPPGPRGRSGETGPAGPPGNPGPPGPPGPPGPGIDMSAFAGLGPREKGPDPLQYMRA
collagen I, sequence (P02452 162-1218 limits assumed): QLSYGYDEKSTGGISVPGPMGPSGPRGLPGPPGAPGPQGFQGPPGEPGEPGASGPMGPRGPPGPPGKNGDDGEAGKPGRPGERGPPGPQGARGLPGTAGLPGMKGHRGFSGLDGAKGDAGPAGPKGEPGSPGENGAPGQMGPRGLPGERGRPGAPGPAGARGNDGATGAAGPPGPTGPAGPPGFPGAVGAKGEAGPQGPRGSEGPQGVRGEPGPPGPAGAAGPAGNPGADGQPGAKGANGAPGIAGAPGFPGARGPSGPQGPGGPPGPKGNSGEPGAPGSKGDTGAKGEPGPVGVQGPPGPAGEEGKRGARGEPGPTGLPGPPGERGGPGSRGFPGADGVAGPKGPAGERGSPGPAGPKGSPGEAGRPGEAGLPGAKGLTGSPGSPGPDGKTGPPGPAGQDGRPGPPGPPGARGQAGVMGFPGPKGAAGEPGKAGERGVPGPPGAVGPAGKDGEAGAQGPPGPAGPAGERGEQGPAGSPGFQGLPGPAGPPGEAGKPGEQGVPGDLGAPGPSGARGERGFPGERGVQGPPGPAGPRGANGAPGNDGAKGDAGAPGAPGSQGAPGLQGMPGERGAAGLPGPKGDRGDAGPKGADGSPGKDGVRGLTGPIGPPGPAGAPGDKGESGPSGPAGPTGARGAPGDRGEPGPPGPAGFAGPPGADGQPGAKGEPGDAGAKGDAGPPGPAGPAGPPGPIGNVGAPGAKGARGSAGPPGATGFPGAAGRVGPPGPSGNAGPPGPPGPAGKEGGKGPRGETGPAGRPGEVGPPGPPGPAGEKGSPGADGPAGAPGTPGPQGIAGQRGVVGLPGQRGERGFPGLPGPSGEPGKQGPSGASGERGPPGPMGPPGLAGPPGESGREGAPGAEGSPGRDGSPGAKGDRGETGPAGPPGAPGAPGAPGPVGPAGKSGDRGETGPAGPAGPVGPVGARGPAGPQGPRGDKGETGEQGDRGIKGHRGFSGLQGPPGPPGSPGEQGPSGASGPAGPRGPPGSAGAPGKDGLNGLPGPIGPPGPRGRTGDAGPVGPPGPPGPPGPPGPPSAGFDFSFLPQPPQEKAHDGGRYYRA
collagen I, sequence (P08123 80-1119 limits assumed): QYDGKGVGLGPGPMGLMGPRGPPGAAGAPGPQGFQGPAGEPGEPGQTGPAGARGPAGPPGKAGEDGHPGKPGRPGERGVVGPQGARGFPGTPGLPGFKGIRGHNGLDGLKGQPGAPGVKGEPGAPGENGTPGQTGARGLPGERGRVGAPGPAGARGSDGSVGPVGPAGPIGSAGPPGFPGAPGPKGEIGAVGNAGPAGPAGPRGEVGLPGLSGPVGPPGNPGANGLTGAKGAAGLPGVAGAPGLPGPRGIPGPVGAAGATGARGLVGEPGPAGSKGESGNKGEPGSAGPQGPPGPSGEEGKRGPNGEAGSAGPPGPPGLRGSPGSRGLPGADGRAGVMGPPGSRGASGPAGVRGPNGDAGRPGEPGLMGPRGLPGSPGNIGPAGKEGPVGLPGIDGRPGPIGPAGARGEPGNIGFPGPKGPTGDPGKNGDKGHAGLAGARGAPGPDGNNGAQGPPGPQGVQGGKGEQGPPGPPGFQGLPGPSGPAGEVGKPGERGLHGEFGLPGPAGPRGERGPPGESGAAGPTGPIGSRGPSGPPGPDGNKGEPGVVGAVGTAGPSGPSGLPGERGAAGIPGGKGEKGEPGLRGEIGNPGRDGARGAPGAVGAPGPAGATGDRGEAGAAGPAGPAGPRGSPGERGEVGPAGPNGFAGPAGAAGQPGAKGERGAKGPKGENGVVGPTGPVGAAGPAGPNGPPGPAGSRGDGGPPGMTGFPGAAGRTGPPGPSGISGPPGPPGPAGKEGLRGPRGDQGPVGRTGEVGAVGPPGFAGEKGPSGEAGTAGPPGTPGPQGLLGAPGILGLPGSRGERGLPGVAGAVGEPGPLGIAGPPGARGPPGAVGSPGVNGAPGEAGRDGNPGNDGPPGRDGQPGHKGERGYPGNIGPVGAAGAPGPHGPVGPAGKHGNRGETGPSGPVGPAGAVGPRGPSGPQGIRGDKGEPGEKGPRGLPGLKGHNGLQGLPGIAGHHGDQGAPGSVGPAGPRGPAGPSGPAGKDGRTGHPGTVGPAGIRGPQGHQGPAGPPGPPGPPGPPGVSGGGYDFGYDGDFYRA

| Normalized fluorescence intensity on collagen II coating (collagen II) | Fluorescence intensity, binding on collagen II coating (collagen II) | Normalized fluorescence intensity on collagen I coating (collagen I) | Fluorescence intensity, binding on collagen I coating (collagen I) | Substance | also measured |
| --- | --- | --- | --- | --- | --- |
| – | – | – | – | CRRDDGAHWQFNALTVR (SEQ ID NO: 2) (thiol; MAL-PEG-NHS conjugated to cartilage; listed as Homo sapiens) [HA-binding polymer coating] | Staining of bound biotinylated HA (streptavidin, horseradish peroxidase) (articular cartilage): stained darker; Staining of bound biotinylated HA (streptavidin, horseradish peroxidase) (articular cartilage; listed as C-HABPep): greater intensity of staining |
| 1.65 times to that of scrambled peptide | significant binding | did not bind | no significant binding | WYRGRL (SEQ ID NO: 4) (also: PEG-fluorescein conjugate; listed as Homo sapiens) [collagen II binding peptide, ECMBPep for collagen II; tested conjugated to PEG-fluorescein] | – |
| did not bind | no significant binding | 1.55 times to that of scrambled peptide | significant binding | YSFYSDESLQ (SEQ ID NO: 3) (also: PEG-fluorescein conjugate; listed as Homo sapiens) [collagen I binding peptide, ECMBPep for collagen I; tested conjugated to PEG-fluorescein] | – |
| – | – | – | – | hyaluronic acid [HA] | <μk> kinetic friction [1, 3]: 0.008; <μs> static friction [1, 3]: 0.018; decrease of kinetic total friction value [1, 4]: 72%; decrease of static total friction value [1, 4]: 35%; static lubricity value (<μ> in PBS-<μ> in HA), most severely damaged OA samples vs normal cartilage ([2]; FIG. 4w): approximately 5 times; kinetic lubricity value (<μ> in PBS-<μ> in HA), most severely damaged OA samples vs normal cartilage ([2]; FIG. 4x): approximately 5 times |
